Where a SMILES comes first, the peptide text is derived from it.

Test [1] concerns the target T1, Dickkopf-related protein 1 (Homo sapiens, UniProt O94907).
T1 sequence (O94907 whole entry): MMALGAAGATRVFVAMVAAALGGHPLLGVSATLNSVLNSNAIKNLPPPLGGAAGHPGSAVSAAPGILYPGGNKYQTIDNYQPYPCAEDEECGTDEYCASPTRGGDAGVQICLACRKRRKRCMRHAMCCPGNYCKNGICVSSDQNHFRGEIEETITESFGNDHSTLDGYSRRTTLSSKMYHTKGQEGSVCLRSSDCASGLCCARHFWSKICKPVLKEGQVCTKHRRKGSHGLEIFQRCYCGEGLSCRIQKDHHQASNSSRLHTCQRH
Briefly: Inhibition of biotin-labeled human recombinant DKK1 assessed as reduction in DKK1 interaction with LRP-6/Fc incubated overnight by chemiluminescence based Alpha-screen assay. A general note: In Alpha technology, singlet oxygen from a donor bead excites a nearby acceptor bead.

Test [2] has as its target T2, Dickkopf WNT-signaling pathway inhibitor 1 (Rattus norvegicus, UniProt A6I0Z0).
T2 sequence (A6I0Z0 whole entry): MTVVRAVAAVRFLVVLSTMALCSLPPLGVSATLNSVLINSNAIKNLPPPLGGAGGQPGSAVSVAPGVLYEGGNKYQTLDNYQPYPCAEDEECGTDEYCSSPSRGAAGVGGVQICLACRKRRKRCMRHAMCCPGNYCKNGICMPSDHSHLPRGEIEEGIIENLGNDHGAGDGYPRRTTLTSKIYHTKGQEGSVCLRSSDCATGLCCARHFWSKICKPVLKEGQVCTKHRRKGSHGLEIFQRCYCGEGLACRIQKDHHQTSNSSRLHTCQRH
Kind of test: Inhibition of biotin-labeled rat recombinant DKK1 assessed as reduction in DKK1 interaction with LRP-6/Fc incubated overnight by chemiluminescence based Alpha-screen assay.

As usually defined, the IC50 is the concentration that inhibits the measured activity by half. Consider `CSCC[C@H](NC(=O)[C@@H]1CCCN1C(=O)[C@H](Cc1ccc(O)cc1)NC(=O)[C@H](CS)NC(=O)[C@H](Cc1cnc[nH]1)NC(=O)[C@@H]1CCCN1C(=O)[C@H](Cc1cnc[nH]1)NC(=O)[C@H](CCCCN)NC(=O)[C@H](CC(C)C)NC(=O)[C@H](CS)NC(=O)[C@H](CCC(N)=O)NC(=O)[C@H](Cc1ccccc1)NC(=O)[C@H](Cc1ccc(O)cc1)NC(=O)[C@H](CO)NC(=O)[C@H](C)NC(=O)[C@@H]1CCCN1C(=O)[C@@H](N)CS)C(=O)N[C@@H](CCC(=O)O)C(=O)N[C@@H](Cc1c[nH]c2ccccc12)C(=O)N[C@@H](CCCNC(=N)N)C(=O)N[C@@H](CS)C(=O)N[C@@H](CC(=O)O)C(=O)NCC(=O)N[C@@H](Cc1ccccc1)C(=O)N[C@@H](CC(=O)O)C(=O)N[C@@H](CC(=O)O)C(=O)N[C@@H](CS)C(=O)N[C@@H](CCC(=O)O)C(=O)N[C@@H](CC(=O)O)C(=O)NCC(=O)N[C@@H](CO)C(=O)N[C@@H](CC(=O)O)C(=O)N[C@@H](CCC(=O)O)C(=O)N[C@H](C(=O)NCC(=O)N[C@@H](CS)C(=O)N1CCC[C@H]1C(=O)N[C@@H](Cc1ccc(O)cc1)C(=O)N[C@@H](CCCNC(=N)N)C(=O)N[C@H](C(=O)O)[C@@H](C)O)[C@@H](C)O` (H-CPASYFQCLKHPHCYPMEWRCDGFDDCEDGSDETGCPYRT-OH), for which the IC50 in test [1] and in test [2] was at most 1 nM in each case.
For the molecule `CSCC[C@H](NC(=O)[C@@H]1CCCN1C(=O)[C@H](Cc1ccc(O)cc1)NC(=O)[C@H](CS)NC(=O)[C@H](Cc1cnc[nH]1)NC(=O)[C@H](CC(N)=O)NC(=O)[C@H](Cc1ccc(O)cc1)NC(=O)[C@H](CC(N)=O)NC(=O)[C@H](CCCNC(=N)N)NC(=O)[C@H](CS)NC(=O)[C@H](CCCCN)NC(=O)[C@H](Cc1ccccc1)NC(=O)[C@H](Cc1ccc(O)cc1)NC(=O)[C@H](CO)NC(=O)[C@H](C)NC(=O)[C@@H]1CCCN1C(=O)[C@@H](N)CS)C(=O)N[C@@H](CCC(=O)O)C(=O)N[C@@H](Cc1c[nH]c2ccccc12)C(=O)N[C@@H](CCCNC(=N)N)C(=O)N[C@@H](CS)C(=O)N[C@@H](CC(=O)O)C(=O)NCC(=O)N[C@@H](Cc1ccccc1)C(=O)N[C@@H](CCCNC(=N)N)C(=O)N[C@@H](CC(=O)O)C(=O)N[C@@H](CS)C(=O)N[C@@H](CCC(=O)O)C(=O)N[C@@H](CC(=O)O)C(=O)NCC(=O)N[C@@H](CO)C(=O)N[C@@H](CC(=O)O)C(=O)N[C@@H](CCC(=O)O)C(=O)N[C@@H](CCC(=O)O)C(=O)NCC(=O)N[C@@H](CS)C(=O)N1CCC[C@H]1C(=O)N[C@@H](Cc1ccc(O)cc1)C(=O)N[C@@H](CCCNC(=N)N)C(=O)N[C@H](C(=O)O)[C@@H](C)O` (H-CPASYFKCRNYNHCYPMEWRCDGFRDCEDGSDEEGCPYRT-OH), the IC50 in test [1] and in test [2] was at most 1 nM in each case.
`CSCC[C@H](NC(=O)[C@@H]1CCCN1C(=O)[C@H](Cc1ccc(O)cc1)NC(=O)[C@H](CS)NC(=O)[C@H](Cc1cnc[nH]1)NC(=O)[C@H](CC(N)=O)NC(=O)[C@H](Cc1ccc(O)cc1)NC(=O)[C@H](CC(N)=O)NC(=O)[C@H](CCCNC(=N)N)NC(=O)[C@H](CS)NC(=O)[C@H](CCC(N)=O)NC(=O)[C@H](Cc1ccccc1)NC(=O)[C@H](Cc1ccc(O)cc1)NC(=O)[C@H](CO)NC(=O)[C@H](C)NC(=O)[C@@H]1CCCN1C(=O)[C@@H](N)CS)C(=O)N[C@@H](CCC(=O)O)C(=O)N[C@@H](Cc1c[nH]c2ccccc12)C(=O)N[C@@H](CCCNC(=N)N)C(=O)N[C@@H](CS)C(=O)N[C@@H](CC(=O)O)C(=O)NCC(=O)N[C@@H](Cc1ccccc1)C(=O)N[C@@H](CCC(=O)O)C(=O)N[C@@H](CC(=O)O)C(=O)N[C@@H](CS)C(=O)N[C@@H](CC(C)C)C(=O)N[C@@H](CC(=O)O)C(=O)NCC(=O)N[C@@H](CO)C(=O)N[C@@H](CC(=O)O)C(=O)N[C@@H](CCC(=O)O)C(=O)N[C@H](C(=O)N[C@@H](CC(=O)O)C(=O)N[C@@H](CS)C(=O)N1CCC[C@H]1C(=O)N[C@@H](Cc1ccc(O)cc1)C(=O)N[C@@H](CCCNC(=N)N)C(=O)N[C@H](C(=O)O)[C@@H](C)O)[C@@H](C)O` (H-CPASYFQCRNYNHCYPMEWRCDGFEDCLDGSDETDCPYRT-OH): the IC50 in test [1] and in test [2] was at most 1 nM in each case.
As to `CSCC[C@H](NC(=O)[C@H](CCCCN)NC(=O)[C@H](CC(=O)O)NC(=O)[C@@H]1CCCN1C(=O)[C@H](CS)NC(=O)[C@H](CCSC)NC(=O)[C@H](Cc1ccccc1)NC(=O)[C@H](CCC(=O)O)NC(=O)[C@H](CC(N)=O)NC(=O)[C@H](CO)NC(=O)[C@@H]1CCCN1C(=O)[C@@H](N)CS)C(=O)N[C@@H](CS)C(=O)N[C@@H](Cc1ccccc1)C(=O)N1CCC[C@H]1C(=O)N[C@@H](CC(C)C)C(=O)N[C@@H](CO)C(=O)N[C@@H](Cc1ccccc1)C(=O)N[C@@H](CCCNC(=N)N)C(=O)N[C@@H](CS)C(=O)N[C@@H](CC(=O)O)C(=O)NCC(=O)N[C@@H](CCC(=O)O)C(=O)N[C@@H](CC(N)=O)C(=O)N[C@@H](CC(=O)O)C(=O)N[C@@H](CS)C(=O)N[C@@H](CCC(=O)O)C(=O)N[C@@H](CC(=O)O)C(=O)NCC(=O)N[C@@H](CO)C(=O)N[C@@H](CC(=O)O)C(=O)N[C@@H](CCC(=O)O)C(=O)N[C@@H](CC(C)C)C(=O)N[C@@H](Cc1ccc(O)cc1)C(=O)N[C@@H](CS)C(=O)N1CCC[C@H]1C(=O)N[C@@H](CO)C(=O)N[C@@H](CCCNC(=N)N)C(=O)N[C@H](C(=O)O)[C@@H](C)O` (H-CPSNEFMCPDKMCFPLSFRCDGENDCEDGSDELYCPSRT-OH), the IC50 in test [1] and in test [2] was at most 1 nM each time.
For the molecule `CSCC[C@H](NC(=O)[C@@H]1CCCN1C(=O)[C@H](Cc1ccc(O)cc1)NC(=O)[C@H](CS)NC(=O)[C@H](Cc1cnc[nH]1)NC(=O)[C@H](CCCCN)NC(=O)[C@H](Cc1ccc(O)cc1)NC(=O)[C@H](CC(N)=O)NC(=O)CNC(=O)[C@H](CS)NC(=O)[C@H](CCC(N)=O)NC(=O)[C@H](Cc1ccccc1)NC(=O)[C@H](Cc1ccc(O)cc1)NC(=O)[C@H](CO)NC(=O)[C@H](C)NC(=O)[C@@H]1CCCN1C(=O)[C@@H](N)CS)C(=O)N[C@@H](CCC(=O)O)C(=O)N[C@@H](Cc1c[nH]c2ccccc12)C(=O)N[C@@H](Cc1cnc[nH]1)C(=O)N[C@@H](CS)C(=O)N[C@@H](CC(=O)O)C(=O)NCC(=O)N[C@@H](Cc1ccccc1)C(=O)N[C@@H](CCC(N)=O)C(=O)N[C@@H](CC(=O)O)C(=O)N[C@@H](CS)C(=O)N[C@H](C(=O)N[C@@H](CC(=O)O)C(=O)NCC(=O)N[C@@H](CO)C(=O)N[C@@H](CC(=O)O)C(=O)N[C@@H](CCC(=O)O)C(=O)N[C@@H](CCCCN)C(=O)N[C@@H](C)C(=O)N[C@@H](CS)C(=O)N1CCC[C@H]1C(=O)N[C@@H](Cc1ccc(O)cc1)C(=O)N[C@@H](CCCNC(=N)N)C(=O)N[C@H](C(=O)O)[C@@H](C)O)C(C)C` (H-CPASYFQCGNYKHCYPMEWHCDGFQDCVDGSDEKACPYRT-OH), the IC50 in test [1] and in test [2] was at most 1 nM throughout.
On to `CSCC[C@H](NC(=O)[C@H](Cc1ccccc1)NC(=O)[C@H](CCC(=O)O)NC(=O)[C@H](Cc1ccc(O)cc1)NC(=O)[C@H](CO)NC(=O)[C@@H]1CCCN1C(=O)[C@@H](N)CS)C(=O)N[C@@H](CS)C(=O)N[C@@H](C)C(=O)N[C@@H](CC(=O)O)C(=O)N[C@@H](CCCCN)C(=O)N[C@@H](CCSC)C(=O)N[C@@H](CS)C(=O)N[C@@H](Cc1ccccc1)C(=O)N1CCC[C@H]1C(=O)N[C@@H](CC(C)C)C(=O)N[C@@H](CC(=O)O)C(=O)N[C@@H](Cc1ccccc1)C(=O)N[C@@H](CC(C)C)C(=O)N[C@@H](CS)C(=O)N[C@@H](CC(=O)O)C(=O)NCC(=O)N[C@@H](CCC(=O)O)C(=O)N[C@@H](CC(N)=O)C(=O)N[C@@H](CC(=O)O)C(=O)N[C@@H](CS)C(=O)N[C@@H](CCC(=O)O)C(=O)N[C@@H](CC(=O)O)C(=O)NCC(=O)N[C@@H](CO)C(=O)N[C@@H](CC(=O)O)C(=O)N[C@@H](CCC(=O)O)C(=O)N[C@@H](CC(=O)O)C(=O)N[C@@H](Cc1ccc(O)cc1)C(=O)N[C@@H](CS)C(=O)N1CCC[C@H]1C(=O)N[C@@H](CO)C(=O)N[C@@H](CCCNC(=N)N)C(=O)N[C@H](C(=O)O)[C@@H](C)O` (H-CPSYEFMCADKMCFPLDFLCDGENDCEDGSDEDYCPSRT-OH), for which the IC50 in test [1] and in test [2] was at most 1 nM in each case.
For `CSCC[C@H](NC(=O)[C@@H]1CCCN1C(=O)[C@H](Cc1ccc(O)cc1)NC(=O)[C@H](CS)NC(=O)[C@H](CO)NC(=O)[C@H](CC(N)=O)NC(=O)[C@H](CC(N)=O)NC(=O)[C@H](CC(N)=O)NC(=O)[C@H](CCCNC(=N)N)NC(=O)[C@H](CS)NC(=O)[C@H](CCC(N)=O)NC(=O)[C@H](Cc1ccccc1)NC(=O)[C@H](Cc1ccc(O)cc1)NC(=O)[C@H](CO)NC(=O)[C@H](C)NC(=O)[C@@H]1CCCN1C(=O)[C@@H](N)CS)C(=O)N[C@@H](CCC(=O)O)C(=O)N[C@@H](Cc1c[nH]c2ccccc12)C(=O)N[C@@H](CCCNC(=N)N)C(=O)N[C@@H](CS)C(=O)N[C@@H](CC(=O)O)C(=O)NCC(=O)N[C@@H](Cc1ccccc1)C(=O)N[C@@H](CCC(=O)O)C(=O)N[C@@H](CC(=O)O)C(=O)N[C@@H](CS)C(=O)N[C@@H](CCC(=O)O)C(=O)N[C@@H](CC(=O)O)C(=O)NCC(=O)N[C@@H](CO)C(=O)N[C@@H](CC(=O)O)C(=O)N[C@@H](CCC(=O)O)C(=O)N[C@@H](CCCNC(=N)N)C(=O)NCC(=O)N[C@@H](CS)C(=O)N1CCC[C@H]1C(=O)N[C@@H](Cc1ccc(O)cc1)C(=O)N[C@@H](CCCNC(=N)N)C(=O)N[C@H](C(=O)O)[C@@H](C)O` (H-CPASYFQCRNNNSCYPMEWRCDGFEDCEDGSDERGCPYRT-OH), the IC50 in test [1] and in test [2] was at most 1 nM each time.
